From US12128064B1, “Polysilane methacrylic compounds and methods of making them” (Zetagen Therapeutics, Inc., priority 2024, dated 2024)

System: BT-474 breast cancer cells
Test: Toxicity of the Compound (IVa) polymer in BT-474 cultures
Type: cell-based
Settings: 24-hours
Experimental: The small molecule, N-allyl noroxymorphone hydrochloride, was added to Compound IVa (SiH3—[SiH2]n—SiH2—[C5H7O2]n with Ca10(PO4)6(OH)2) at a concentration of 0.4-mg N-allyl noroxymorphone/mg of Compound IVa. Then the MAGE-Polymerization Initiator Solution containing the vinyl monomer vinyl methacrylate was added in a ratio of 2:1. The material—with N-allyl noroxymorphone hydrochloride—was then polymerized and added to cultures of BT-474 breast cancer cells. Cultures were also treated with N-allyl noroxymorphone hydrochloride alone. Control cultures received no treatment.

C=CCN1CC[C@]23c4c5ccc(O)c4O[C@H]2C(=O)CC[C@@]3(O)[C@H]1C5.Cl [N-allyl noroxymorphone hydrochloride]
Decrease in cell number relative to Control Cultures: 59.7%
